According to article PMC6628293, “Rhamnose Binding Protein as an Anti-Bacterial Agent—Targeting Biofilm of Pseudomonas aeruginosa” (Marine Drugs, 2019):

Molecular target: T1, rHPLOE (recombinant hemolymph plasma lectin)
T1 construct: gene hpl; E. coli codon-optimised synthetic gene hplOE in pET-23a(+), BL21(DE3) with chaperones (pG-KJE8); His-tag kept; HisTrap purified
Experiment: competitive ELISA against coated PA14 biofilm extract
Parameters: species or system Tachypleus tridentatus
Conditions: 0.1 uM rHPLOE; 37 °C, 1 h; competitor of binding to cell-free P. aeruginosa PA14 biofilm; one-site Ki fit
Text: competitive ELISA against coated PA14 biofilm extract on rHPLOE (recombinant hemolymph plasma lectin) | The inhibitory constant (Ki) of L-rhamnose to rHPLOE interaction with the biofilm

`C[C@@H]1OC(O)[C@H](O)[C@H](O)[C@H]1O` (stereo partly drawn) [L-rhamnose] showed a Ki of 98 mM.
